Our source for the IC50 values is US11040035B2, “3-oxo-2,6-diphenyl-2,3-dihydropyridazine-4-carboxamides” (BAYER PHARMA AKTIENGESELLSCHAFT, priority 2016, dated 2021).

In assay [1] the target is T1, AHR (Homo sapiens, UniProt P35869).
T1 sequence (P35869 11-848): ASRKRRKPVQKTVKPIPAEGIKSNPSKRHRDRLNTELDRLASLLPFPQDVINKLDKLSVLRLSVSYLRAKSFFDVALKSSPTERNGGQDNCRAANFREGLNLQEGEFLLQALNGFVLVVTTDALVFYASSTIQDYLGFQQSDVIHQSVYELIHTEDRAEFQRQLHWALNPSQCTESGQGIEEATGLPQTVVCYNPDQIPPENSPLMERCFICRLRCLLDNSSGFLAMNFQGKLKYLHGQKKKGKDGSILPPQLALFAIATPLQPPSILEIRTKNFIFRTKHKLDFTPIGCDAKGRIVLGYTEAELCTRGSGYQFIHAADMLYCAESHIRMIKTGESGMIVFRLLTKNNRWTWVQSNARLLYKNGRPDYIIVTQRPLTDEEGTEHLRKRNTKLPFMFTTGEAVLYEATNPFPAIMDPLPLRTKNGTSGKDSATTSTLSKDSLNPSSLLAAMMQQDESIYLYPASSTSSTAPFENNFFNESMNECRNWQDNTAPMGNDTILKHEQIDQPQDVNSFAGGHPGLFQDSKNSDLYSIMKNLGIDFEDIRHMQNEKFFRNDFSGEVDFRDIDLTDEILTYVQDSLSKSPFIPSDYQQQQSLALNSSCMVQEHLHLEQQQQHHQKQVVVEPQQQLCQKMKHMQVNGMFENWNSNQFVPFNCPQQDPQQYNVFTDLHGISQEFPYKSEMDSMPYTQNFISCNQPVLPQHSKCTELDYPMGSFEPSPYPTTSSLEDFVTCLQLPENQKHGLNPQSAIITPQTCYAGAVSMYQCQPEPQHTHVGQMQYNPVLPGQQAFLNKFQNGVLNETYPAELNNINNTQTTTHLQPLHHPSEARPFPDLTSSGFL
Briefly: In vitro assay 1: antagonism in human cell line (transactivation assay, kynurenic acid prestimulated). The settings on record: Assay 1: AHR-luc Hum Antagonism IC50 [M], 150 μM kynurenic acid, 20 hours, firefly luciferase.

For assay [2], the target named is T1, AHR. Kind of assay: In vitro assay 2: agonism in human cell line (transactivation assay).
The mark [3] stands for this setting: Assay 2: AHR-luc Hum Agonism IC50 [M], no kynurenic acid, 20 hours, firefly luciferase.
Setting [4] is: read-out: Assay 2: AHR-luc Hum Agonism IC50, no kynurenic acid, 20 hours, firefly luciferase.

For orientation: IC50 means the concentration that inhibits the measured activity by half. As for `CC(C)(CNC(=O)c1cc(-c2ccc(Cl)cc2)nn(-c2cccc(F)c2)c1=O)C(=O)O` [Example 399, 3-({[6-(4-Chlorophenyl)-2-(3-fluorophenyl)-3-oxo-2,3-dihydropyridazin-4-yl]carbonyl}amino)-2,2-dimethylpropanoic acid], the results for the IC50 against AHR [1] and against AHR [2] (setting [3]) were 7.2e-07 M and > 2e-05 M, respectively.

With `O=C(NC[C@H]1C[C@H](O)C1)c1cc(-c2ccc(Cl)cc2)nn(-c2cccc(F)c2)c1=O` [Example 372, 6-(4-chlorophenyl)-2-(3-fluorophenyl)-N-[(trans-3-hydroxycyclobutyl)-methyl]-3-oxo-2,3-dihydropyridazine-4-carboxamide], the results for the IC50 at AHR [1] and on AHR [2] (setting [3]) were 2.21e-07 M and > 2e-05 M, respectively.

Consider `CC(NC(=O)c1cc(-c2ccc(Cl)cc2)nn(-c2cccc(F)c2)c1=O)C(O)CO` (centres unmarked) [Example 337, 6-(4-chlorophenyl)-N-(3,4-dihydroxybutan-2-yl)-2-(3-fluorophenyl)-3-oxo-2,3-dihydropyridazine-4-carboxamide], for which the IC50 against AHR [1] was 4.58e-08 M; against AHR [2] (setting [3]), > 2e-05 M.

Regarding `O=C(NCC1(O)CC1)c1cc(-c2ccc(Cl)cc2)nn(-c2cccc(F)c2)c1=O` [Example 196, 6-(4-Chlorophenyl)-2-(3-fluorophenyl)-N-[(1-hydroxycyclopropyl)methyl]-3-oxo-2,3-dihydropyridazine-4-carboxamide], the IC50 on AHR [1] was 1.04e-07 M; against AHR [2] (setting [3]), > 2e-05 M.

Turning to `CC(NC(=O)c1cc(-c2ccc(Cl)cc2)nn(-c2cccc(F)c2)c1=O)C(O)CO` (single isomer, unassigned) [Example 346, 6-(4-chlorophenyl)-N-(3,4-dihydroxybutan-2-yl)-2-(3-fluorophenyl)-3-oxo-2,3-dihydropyridazine-4-carboxamide], the IC50 was 1.98e-07 M against AHR [1] and > 2e-05 M against AHR [2] (setting [3]).

As for `O=C(N[C@@H](CO)C(=O)O)c1cc(-c2ccc(Cl)cc2)nn(-c2cccc(F)c2)c1=O` [Example 165, N-{[6-(4-Chlorophenyl)-2-(3-fluorophenyl)-3-oxo-2,3-dihydropyridazin-4-yl]carbonyl}-L-serine], the IC50 at AHR [1] and on AHR [2] (setting [3]) was > 2e-05 M each time.

As to `O=C(N[C@H]1CCCC[C@@H]1O)c1cc(-c2ccc(Cl)cc2)nn(-c2cccc(F)c2)c1=O` (relative stereo) [Example 117, 6-(4-chlorophenyl)-2-(3-fluorophenyl)-N-(trans-2-hydroxycyclohexyl)-3-oxo-2,3-dihydropyridazine-4-carboxamide], the IC50 at AHR [1] is 3.67e-08 M; at AHR [2] (setting [3]), > 2e-05 M.

`C[C@@H](CO)NC(=O)c1cc(-c2ccc(Cl)cc2)nn(-c2cccc(Cl)c2)c1=O` [Example 66, 2-(3-Chlorophenyl)-6-(4-chlorophenyl)-N-[(2S)-1-hydroxypropan-2-yl]-3-oxo-2,3-dihydropyridazine-4-carboxamide]: the IC50 on AHR [1] was 1.65e-07 M; against AHR [2] (setting [3]), > 2e-05 M.

With `O=C(NCC(O)C1CC1)c1cc(-c2ccc(Cl)cc2)nn(-c2cccc(F)c2)c1=O` (racemic) [Example 190, 6-(4-Chlorophenyl)-N-[(2RS)-2-cyclopropyl-2-hydroxyethyl]-2-(3-fluorophenyl)-3-oxo-2,3-dihydropyridazine-4-carboxamide], the figures for the IC50 at AHR [1] and at AHR [2] (setting [3]) were 2.77e-07 M and > 2e-05 M, respectively.

As for `COc1ccc(-c2cc(C(=O)N[C@H](CO)C(C)C)c(=O)n(-c3cccc(F)c3)n2)cc1` [Example 113, 2-(3-Fluorophenyl)-N-[(2S)-1-hydroxy-3-methylbutan-2-yl]-6-(4-methoxyphenyl)-3-oxo-2,3-dihydropyridazine-4-carboxamide], the values for the IC50 against AHR [1] and against AHR [2] (setting [3]) were 1.8e-08 M and > 2e-05 M, respectively.

For the compound `Cc1ccc(-c2cc(C(=O)NCC(C)O)c(=O)n(-c3cccc(F)c3)n2)cc1` (single isomer, unassigned; enantiomer 1) [Example 14, 2-(3-Fluorophenyl)-N-(2-hydroxypropyl)-6-(4-methylphenyl)-3-oxo-2,3-dihydropyridazine-4-carboxamide, Enantiomer 1], the concentration for half-maximal inhibition (IC50) was 1.75e-07 M against AHR [1] and > 2e-05 M against AHR [2] (setting [3]).

Take `CN(C)c1ccc(-c2cc(C(=O)N[C@H](CO)C(F)(F)F)c(=O)n(-c3cccc(F)c3)n2)cc1Cl` [Example 373, 6-[3-chloro-4-(dimethylamino)phenyl]-2-(3-fluorophenyl)-3-oxo-N-[(2R)-1,1,1-trifluoro-3-hydroxypropan-2-yl]-2,3-dihydropyridazine-4-carboxamide]: the IC50 on AHR [1] is 1.69e-08 M; against AHR [2] (setting [3]), > 2e-05 M.

On to `Cc1ccc(-c2cc(C(=O)NCC(O)C(F)(F)F)c(=O)n(-c3cccc(F)c3)n2)cc1` (single isomer, unassigned; enantiomer 2) [Example 6, 2-(3-Fluorophenyl)-6-(4-methylphenyl)-3-oxo-N-(3,3,3-trifluoro-2-hydroxypropyl)-2,3-dihydropyridazine-4-carboxamide, enantiomer 2], for which the figures for the 50% inhibitory concentration (IC50) on AHR [1] and at AHR [2] (setting [4]) were 6.58e-08 M and > 2e-05 M, respectively.

For `COCC(O)CNC(=O)c1cc(-c2ccc(C)cc2)nn(-c2cccc(F)c2)c1=O` (single isomer, unassigned; enantiomer 2) [Example 18, 2-(3-Fluorophenyl)-N-(2-hydroxy-3-methoxypropyl)-6-(4-methylphenyl)-3-oxo-2,3-dihydropyridazine-4-carboxamide, Enantiomer 2], the IC50 was 3.39e-07 M at AHR [1] and > 2e-05 M on AHR [2] (setting [4]).

In the case of `CC[C@@H](CO)NC(=O)c1cc(-c2ccc(C(F)F)cc2)nn(-c2cccc(F)c2)c1=O` [Example 92, 6-[4-(Difluoromethyl)phenyl]-2-(3-fluorophenyl)-N-[(2S)-1-hydroxybutan-2-yl]-3-oxo-2,3-dihydropyridazine-4-carboxamide], the IC50 at AHR [1] is 1.2e-08 M; against AHR [2] (setting [3]), > 2e-05 M.

With `C[C@@H](CO)NC(=O)c1cc(-c2ccc(Cl)cc2)nn(-c2ccccc2)c1=O` [Example 80, 6-(4-chlorophenyl)-N-[(2S)-1-hydroxypropan-2-yl]-3-oxo-2-phenyl-2,3-dihydropyridazine-4-carboxamide], the IC50 against AHR [1] was 2.14e-07 M; against AHR [2] (setting [3]), > 2e-05 M.

For the compound `O=C(NC(CO)C1CCOC1)c1cc(-c2ccc(OC(F)F)cc2)nn(-c2cccc(F)c2)c1=O` (single isomer, unassigned) [Example 147, 6-[4-(Difluoromethoxy)phenyl]-2-(3-fluorophenyl)-N-{(2-hydroxy-1-tetrahydrofuran-3-yl)ethyl}-3-oxo-2,3-dihydropyridazine-4-carboxamide], the IC50 against AHR [1] was 4.66e-07 M; at AHR [2] (setting [4]), > 2e-05 M.

Take `O=C(NCC(O)C1CC1)c1cc(-c2ccc(Cl)cc2)nn(-c2cccc(F)c2)c1=O` (single isomer, unassigned; (+)) [Example 192, (+)-6-(4-Chlorophenyl)-N-(2-cyclopropyl-2-hydroxyethyl)-2-(3-fluorophenyl)-3-oxo-2,3-dihydropyridazine-4-carboxamide]: the results for the IC50 at AHR [1] and at AHR [2] (setting [4]) were 1.97e-07 M and > 2e-05 M, respectively.

On to `Cc1ccc(-c2cc(C(=O)NCC(O)C(F)(F)F)c(=O)n(-c3cc(F)cc(F)c3)n2)cc1` (single isomer, unassigned) [Example 53, 2-(3,5-Difluorophenyl)-6-(4-methylphenyl)-3-oxo-N-(3,3,3-trifluoro-2-hydroxypropyl)-2,3-dihydropyridazine-4-carboxamide], for which the IC50 was 8.85e-09 M against AHR [1] and > 2e-05 M against AHR [2] (setting [3]).

On to `O=C(NC(CO)C1CCOCC1)c1cc(-c2ccc(Cl)cc2)nn(-c2cccc(F)c2)c1=O` (single isomer, unassigned) [Example 150, 6-(4-Chlorophenyl)-2-(3-fluorophenyl)-N-[2-hydroxy-1-(tetrahydro-2H-pyran-4-yl)ethyl]-3-oxo-2,3-dihydropyridazine-4-carboxamide], for which the half-maximal inhibitory concentration (IC50) was 2.35e-07 M against AHR [1] and > 2e-05 M at AHR [2] (setting [3]).

Turning to `C[C@H](O)[C@H](C)NC(=O)c1cc(-c2ccc(Cl)c(F)c2)nn(-c2cccc(F)c2)c1=O` (relative stereo) [Example 290, rel-6-(4-Chloro-3-fluorophenyl)-2-(3-fluorophenyl)-N-[(2S,3S)-3-hydroxybutan-2-yl]-3-oxo-2,3-dihydropyridazine-4-carboxamide], the IC50 on AHR [1] is 8.14e-08 M; against AHR [2] (setting [3]), > 2e-05 M.

On to `O=C(NC(CO)C1CCOC1)c1cc(-c2ccc(Cl)c(F)c2)nn(-c2cccc(F)c2)c1=O` (centres unmarked) [Example 287, 6-(4-Chloro-3-fluorophenyl)-2-(3-fluorophenyl)-N-[2-hydroxy-1-[-tetrahydrofuran-3-yl]ethyl]-3-oxo-2,3-dihydropyridazine-4-carboxamide], for which the 50% inhibitory concentration (IC50) at AHR [1] was 1.29e-07 M; on AHR [2] (setting [3]), > 2e-05 M.
